The record followed here is US11566007B2, “Ras inhibitors” (Revolution Medicines, Inc., priority 2019, dated 2023).

The IC50 is the concentration at which inhibition is half-maximal. What is called EC50 is the midpoint of the concentration-response curve.

Like-named read-outs stand apart in the source and are kept apart here.

The target in test [1] is KRAS G12V (Homo sapiens (Human), UniProt P01116+P62937, G12V). Description: Ras-Raf (BRAF RBD) disruption / FRET / MOA assay, KRAS G12V. It is filed as biochemical. The conditions noted are these: read-out: IC50* KRAS G12V FRET data. In short, it runs like this:
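A 10-point, 3-fold dilution series topping at 30 μM final was incubated 3 h at 25° C with the Ras/cyclophilin A/BRAF RBD mixture.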

The target in test [2] is KRAS Q61H (Homo sapiens (Human), UniProt P01116+P62937, Q61H). Description: Ras-Raf (BRAF RBD) disruption / FRET / MOA assay, KRAS Q61H. It is filed as biochemical. The conditions noted are these: Ras-Raf disruption/FRET/MOA assay; class symbols; read-out: KRAS Q61H FRET data IC50. In short, it runs like this: (§1)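 Compounds (30 μM top final, 10-point 3-fold dilutions) incubated 3 h at 25° C with nucleotide-loaded Ras, cyclophilin A and BRAF RBD. Detection with 10 nM anti-His Eu-W1024 and 50 nM anti-GST allophycocyanin over another 1.5 h. Lowered TR-FRET ratio relative to DMSO wells gives IC50.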
Chain of KRAS Q61H (P01116-2 other isoform, or with tags, fused parts or gaps Q61H): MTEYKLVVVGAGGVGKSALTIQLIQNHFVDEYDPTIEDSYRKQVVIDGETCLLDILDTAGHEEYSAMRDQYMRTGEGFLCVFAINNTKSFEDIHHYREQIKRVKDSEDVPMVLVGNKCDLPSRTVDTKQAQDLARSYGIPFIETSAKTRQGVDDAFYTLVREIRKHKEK
Chain of KRAS Q61H (P62937 whole entry): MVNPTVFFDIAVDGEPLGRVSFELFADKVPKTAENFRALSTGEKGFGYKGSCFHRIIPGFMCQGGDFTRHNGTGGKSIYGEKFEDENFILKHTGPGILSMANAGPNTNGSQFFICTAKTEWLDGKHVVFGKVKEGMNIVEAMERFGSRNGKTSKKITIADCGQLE

In test [3] the test system is NCI-H358 cells (K-Ras G12C). Description: Potency assay: pERK in NCI-H358 cells. The conditions noted are these: H358 KRAS G12C, read-out: pERK EC50. The format is cell-based, human. Put shortly:
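pERK decrease read by AlphaLISA SureFire p-ERK1/2 or In-Cell Western after 4 h compound exposure at 37 °C, 5% CO2.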

For test [4], the system named is NCI-H358 (K-Ras G12C). Description: CellTiter-Glo cell viability assay, NCI-H358. The format is cell-based, human. The conditions noted are these: NCI-H358, 5-day treatment, class symbols, read-out: Additional H358 Cell Viability assay data (K-Ras G12C, IC50). Put shortly: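 Cells seeded, compound added directly, 5-day exposure. Plates to RT ~30 min, CellTiter-Glo luminescence read. Normalized to DMSO avg (x100); 4-parameter logistic fit.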
Background: In ATP-based viability assays light output follows the ATP content of the culture.

Test [5] addresses NRAS Q61K (Homo sapiens (Human), UniProt P01111+P62937, Q61K). Description: Ras-Raf (BRAF RBD) disruption / FRET / MOA assay, NRAS Q61K. The format is biochemical. The conditions noted are these: NRAS Q61K; Ras-Raf disruption/FRET/MOA assay; read-out: IC50* NRAS Q61K FRET data. Put shortly:
as §1

Chain of KRAS G12V (P01116-2 other isoform, or with tags, fused parts or gaps G12V): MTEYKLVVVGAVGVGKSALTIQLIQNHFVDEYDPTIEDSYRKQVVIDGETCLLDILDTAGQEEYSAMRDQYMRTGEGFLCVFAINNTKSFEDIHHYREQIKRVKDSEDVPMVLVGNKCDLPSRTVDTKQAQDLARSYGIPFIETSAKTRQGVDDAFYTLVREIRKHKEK
Chain of KRAS G12V (P62937 whole entry): as the sequence (P62937 whole entry) above
Chain of NRAS Q61K (P01111 whole entry Q61K): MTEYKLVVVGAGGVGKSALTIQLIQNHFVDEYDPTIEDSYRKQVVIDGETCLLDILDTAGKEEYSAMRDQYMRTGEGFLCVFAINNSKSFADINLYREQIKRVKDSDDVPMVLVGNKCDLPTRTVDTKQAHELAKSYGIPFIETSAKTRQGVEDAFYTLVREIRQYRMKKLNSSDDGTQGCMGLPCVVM
Chain of NRAS Q61K (P62937 whole entry): as the sequence (P62937 whole entry) above

As for `C=CC(=O)N1CCC(F)(C(=O)N(C)[C@H](C(=O)N[C@H]2C[C@H]3CN(CCO3)c3ccc4c(c3)c(c(-c3cccnc3[C@H](C)OC)n4CC)CC(C)(C)COC(=O)[C@@H]3CCCN(N3)C2=O)C(C)C)CC1` (atropisomer, axis not shown) [Example A722, 1-acryloyl-N-((2S)-1-(((6^3S,4S)-1^1-ethyl-1^2-(2-((S)-1-methoxyethyl)pyridin-3-yl)-10,10-dimethyl-5,7-dioxo-6^1,6^2,6^3,6^4,6^5,6^6-hexahydro-1^1H-8-oxa-2(4,2)-morpholina-1(5,3)-indola-6(1,3)-pyridazinacycloundecaphane-4-yl)amino)-3-methyl-1-oxobutan-2-yl)-4-fluoro-N-methylpiperidine-4-carboxamide], the IC50 in test [1] was in the range of 1000 to 10000 nM; in test [2] it was 1000 to 10000 nM; in test [4] (Homo sapiens, NCI-H358, 120 h), 10 to 100 nM; in test [5] it was 1000 to 10000 nM. The EC50 in test [3] (Homo sapiens, NCI-H358) was less than 5000 nM.
Take `C=CC(=O)N1CC[C@@]2(C1)OCN([C@H](C(=O)N[C@H]1Cc3cccc(c3)-c3ccc4c(c3)c(c(-c3cccnc3[C@H](C)OC)n4CC)CC(C)(C)COC(=O)[C@@H]3CCCN(N3)C1=O)C(C)C)C2=O` (atropisomer, axis not shown) [Example A358]: the IC50 in test [1] fell in the range of 1000 to 10000 nM; in test [2] it was 100 to 1000 nM; in test [4] (Homo sapiens, NCI-H358, 120 h), 10 to 100 nM; in test [5] it was 1000 to 10000 nM. Further, in test [3] (Homo sapiens, NCI-H358), the EC50 was less than 5000 nM.
With `CCn1c(-c2cccnc2[C@H](C)OC)c2c3cc(ccc31)C1CCCN(C1)C[C@H](NC(=O)[C@@H](COC1CN(C(=O)C#CC(C)(C)N(C)C)C1)C(C)C)C(=O)N1CCC[C@H](N1)C(=O)OCC(C)(C)C2` [Example A646, (2R)-2-(((1-(4-(dimethylamino)-4-methylpent-2-ynoyl)azetidin-3-yl)oxy)methyl)-N-((6^3S,4S)-1^1-ethyl-1^2-(2-((S)-1-methoxyethyl)pyridin-3-yl)-10,10-dimethyl-5,7-dioxo-6^1,6^2,6^3,6^4,6^5,6^6-hexahydro-1^1H-8-oxa-1(5,3)-indola-6(1,3)-pyridazina-2(3,1)-piperidinacycloundecaphane-4-yl)-3-methylbutanamide], the IC50 in test [1] was more than 10000 nM; in test [2], more than 10000 nM; in test [4] (Homo sapiens, NCI-H358, 120 h) it was 10 to 100 nM; in test [5], more than 10000 nM. Further, the EC50 in test [3] (Homo sapiens, NCI-H358) is less than 5000 nM.
As to `C=CC(=O)N1CC[C@H](C(=O)N(C)[C@H](C(=O)N[C@H]2Cc3cccc(c3)-c3ccc4c(c3)c(c(-c3cccnc3[C@H](C)OC)n4CC)CC(C)(C)COC(=O)[C@@H]3CCCN(N3)C2=O)C(C)C(F)(F)F)C1` (stereo partly shown) [Example A641], the IC50 in test [1] was 1000 to 10000 nM; in test [2] it was 1000 to 10000 nM; in test [4] (Homo sapiens, NCI-H358, 120 h), 10 to 100 nM; in test [5] it was 1000 to 10000 nM. For the same molecule, the EC50 in test [3] (Homo sapiens, NCI-H358) is less than 5000 nM.
Take `C=CC(=O)N1CC[C@H](C(=O)N(C)[C@H](C(=O)N[C@H]2Cc3cc(O)cc(c3)-c3ccc4c(c3)c(c(-c3cncs3)n4CC)CC(C)(C)COC(=O)[C@@H]3CCCN(N3)C2=O)C(C)C)C1` [Example A143]: the IC50 in test [1] was 1000 to 10000 nM; in test [2], 1000 to 10000 nM; in test [4] (Homo sapiens, NCI-H358, 120 h), 10 to 100 nM; in test [5] it was 1000 to 10000 nM. Further, the EC50 in test [3] (Homo sapiens, NCI-H358) was less than 5000 nM.
For the molecule `C=CC(=O)N1CCN(C(=O)N(C)[C@H](C(=O)N[C@H]2Cc3nc(cs3)-c3ccc4c(c3)c(c(-c3cccnc3[C@H](C)OC)n4CC)CC(C)(C)COC(=O)[C@@H]3CCCN(N3)C2=O)C(C)C)[C@H]2C[C@H]21` (atropisomer, axis not shown) [Example A737], the IC50 was in the range of 100 to 1000 nM in test [1]; 10 to 100 nM in test [2]; 10 to 100 nM in test [4] (Homo sapiens, NCI-H358, 120 h); 10 to 100 nM in test [5]. Moreover, the concentration giving a half-maximal response (EC50) in test [3] (Homo sapiens, NCI-H358) was less than 5000 nM.
As for `C=CC(=O)N1CC[C@H](C(=O)N(C)[C@H](C(=O)N[C@H]2Cc3cccc(c3)-c3ccc4c(c3)c(c(-c3cc(C5CN(C)C5)cnc3[C@H](C)OC)n4CC)CC(C)(C)COC(=O)[C@@H]3CCCN(N3)C2=O)C(C)C)C1` (atropisomer, axis not shown) [Example A392], the IC50 in test [1] was 1000 to 10000 nM; in test [2], 1000 to 10000 nM; in test [4] (Homo sapiens, NCI-H358, 120 h), 10 to 100 nM; in test [5], more than 10000 nM. In addition, the EC50 in test [3] (Homo sapiens, NCI-H358) is less than 5000 nM.
For `CO[C@@H](C)c1ncccc1-c1c2c3cc(ccc3n1CC(F)(F)F)-c1cc(cc(C(F)F)c1)C[C@H](NC(=O)[C@@H](COC1CN(C(=O)C#CC(C)(C)N(C)C)C1)C(C)C)C(=O)N1CCC[C@H](N1)C(=O)OCC(C)(C)C2` (atropisomer, axis not shown) [Example A374], the IC50 was more than 10000 nM in test [1]; more than 10000 nM in test [2]; 10 to 100 nM in test [4] (Homo sapiens, NCI-H358, 120 h); more than 10000 nM in test [5]. Besides, the EC50 in test [3] (Homo sapiens, NCI-H358) was less than 5000 nM.
On to `C=CC(=O)N(C)C[C@@H]1CCN1C(=O)N(C)[C@H](C(=O)N[C@H]1Cc2nc(cs2)-c2ccc3c(c2)c(c(-c2cccnc2[C@H](C)OC)n3CC)CC(C)(C)COC(=O)[C@@H]2CCCN(N2)C1=O)C(C)C` (atropisomer, axis not shown) [Example A390], for which the IC50 in test [1] lay within 1000 to 10000 nM; in test [2], 100 to 1000 nM; in test [4] (Homo sapiens, NCI-H358, 120 h), 100 to 1000 nM; in test [5], 100 to 1000 nM. In test [3] (Homo sapiens, NCI-H358), the EC50 is less than 5000 nM.
As to `CCn1c(-c2cccnc2[C@H](C)OC)c2c3cc(ccc31)N1CCO[C@@H](C[C@H](NC(=O)[C@H](C(C)C)N(C)C(=O)C3(F)CCN(C(=O)/C=C/CN(C)C)CC3)C(=O)N3CCC[C@H](N3)C(=O)OCC(C)(C)C2)C1` (atropisomer, axis not shown) [Example A645], the IC50 is 1000 to 10000 nM in test [1]; 1000 to 10000 nM in test [2]; 10 to 100 nM in test [4] (Homo sapiens, NCI-H358, 120 h); more than 10000 nM in test [5]. Moreover, in test [3] (Homo sapiens, NCI-H358), the EC50 is less than 5000 nM.
On to `C=CC(=O)N(C)CCN1CCN(C(=O)N(C)[C@H](C(=O)N[C@H]2Cc3cccc(c3)-c3ccc4c(c3)c(c(-c3cccnc3[C@H](C)OC)n4CC)CC(C)(C)COC(=O)[C@@H]3CCCN(N3)C2=O)C(C)C)CC1` (atropisomer, axis not shown) [Example A539], for which the IC50 lay within 100 to 1000 nM in test [1]; 100 to 1000 nM in test [2]; 100 to 1000 nM in test [4] (Homo sapiens, NCI-H358, 120 h); 100 to 1000 nM in test [5]. Moreover, the EC50 in test [3] (Homo sapiens, NCI-H358) is less than 5000 nM.
In the case of `C=CC(=O)N1CCOC2(CCN(C(=O)N(C)[C@H](C(=O)N[C@H]3Cc4cc(C(F)F)cc(n4)-c4ccc5c(c4)c(c(-c4cccnc4[C@H](C)OC)n5CC(F)(F)F)CC(C)(C)COC(=O)[C@@H]4CCCN(N4)C3=O)C(C)C)CC2)C1` (atropisomer, axis not shown) [Example A541], the IC50 is 1000 to 10000 nM in test [1]; 100 to 1000 nM in test [2]; 10 to 100 nM in test [4] (Homo sapiens, NCI-H358, 120 h); 100 to 1000 nM in test [5]. The concentration giving a half-maximal response (EC50) in test [3] (Homo sapiens, NCI-H358) was less than 5000 nM.
As for `C=CC(=O)N1CC[C@H](C(=O)N(C)[C@H](C(=O)N[C@H]2Cc3cc(O)cc(c3)-c3ccc4c(c3)c(c(-c3cnc(N(C)C)s3)n4CC)CC(C)(C)COC(=O)[C@@H]3CCCN(N3)C2=O)C(C)C)C1` [Example A302], the IC50 in test [1] was 1000 to 10000 nM; in test [2] it was 1000 to 10000 nM; in test [4] (Homo sapiens, NCI-H358, 120 h) it was 10 to 100 nM; in test [5], more than 10000 nM. For the same molecule, in test [3] (Homo sapiens, NCI-H358), the EC50 was less than 5000 nM.
For `CCn1c(-c2cccnc2[C@H](C)OC)c2c3cc(ccc31)-c1cccc(c1)CC(NC(=O)[C@H](C(C)C)N1CC[C@]3(CCN(C(=O)C#C[C@@H]4COCCN4C4COC4)C3)C1=O)C(=O)N1CCC[C@H](N1)C(=O)OCC(C)(C)C2` (stereo partly shown) [Example A565], the IC50 is 1000 to 10000 nM in test [1]; 1000 to 10000 nM in test [2]; 10 to 100 nM in test [4] (Homo sapiens, NCI-H358, 120 h); more than 10000 nM in test [5]. For the same molecule, the EC50 in test [3] (Homo sapiens, NCI-H358) was less than 5000 nM.
Take `C=CC(=O)N1CC[C@]2(CCN2C(=O)N(C)[C@H](C(=O)N[C@H]2Cc3nc(cs3)-c3ccc4c(c3)c(c(-c3cccnc3[C@H](C)OC)n4CC)CC(C)(C)COC(=O)[C@@H]3CCCN(N3)C2=O)C(C)C)C1` (atropisomer, axis not shown) [Example A662]: the concentration for half-maximal inhibition (IC50) lay within 100 to 1000 nM in test [1]; 10 to 100 nM in test [2]; 10 to 100 nM in test [4] (Homo sapiens, NCI-H358, 120 h); 10 to 100 nM in test [5]. In test [3] (Homo sapiens, NCI-H358), the EC50 was less than 5000 nM.
`C=CC(=O)N1CC[C@H](C(=O)N(C)[C@H](C(=O)N[C@H]2Cc3cc(O)cc(c3)-c3ccc4c(c3)c(c(-c3cccnc3[C@@H](OC)C3CC3)n4CC)CC(C)(C)COC(=O)[C@@H]3CCCN(N3)C2=O)C(C)C)C1` (atropisomer, axis not shown) [Example A207]: the values for the IC50 in test [2], in test [4] and in test [5] were 10 to 100 nM, 10 to 100 nM and 100 to 1000 nM, respectively. Besides, the EC50 in test [3] was less than 5000 nM.
